Measured values published in patent US8309299B2, “Combination therapy and method for assessing resistance to treatment” (Hoffmann-La Roche Inc., priority 2010, dated 2012).

Legend:
LOVO (colon) xenograft = assay: in vivo activity in LOVO xenograft model; parameters: species or system human; settings: LOVO (colon) xenograft in nude mice; 10 mg/kg daily po; 21 days following commencement of treatment
Protocol: (§1) Female nu/nu (nude) mice obtained from Charles River Laboratories (Wilmington, Mass.) or female SCID-beige mice (Taconic, Germantown, N.Y.) were used (10 mice/group) when they were approximately 8 to 14 weeks old and weighed approximately 23 to 25 grams. All animal experiments were performed in accordance with protocols approved by the Roche Animal Care and Use Committee (RACUC).
(§2) The human cancer cell lines LOVO, BxPC3, HCT-116, A549, AsPC-1, MiaPaCa-2, and Calu-6 were purchased from the American Type Culture Collection. The H460a cell line was a gift from Dr. Jack Roth (M. D. Anderson Medical Center).
(§3) For xenograft implantation, cells were harvested using 0.05% trypsin, washed and centrifuged in culture medium, and resuspended in either a 1:1 mixture of phosphate buffered saline (PBS) and Matrigel (BxPC-3) or PBS alone (A549, H460a, LOVO, Calu-6, HCT-116, MiaPaca-2, and AsPC-1) at a concentration of 1.5-5×10^7 cells per mL. […]
(§4) Tumor measurements and mouse weights were taken twice per week. Statistical analysis was determined by Mann-Whitney Rank Sum Test, 1-way ANOVA, and post hoc Bonferroni t-test (SigmaStat, version 2.0, Jandel Scientific, San Francisco, Calif.). […]
(§5) Tumor growth inhibition (TGI %) was measured 21 days following the commencement of the treatment.

[1] = test system: BxPC3 (pancreatic) xenograft; assay: in vivo activity in BxPC3 xenograft model; parameters: species or system human; settings: BxPC3 (pancreatic) xenograft in SCID-beige mice; 10 mg/kg daily po; 21 days following commencement of treatment
Protocol: as §1, §2, §3, §4, §5

[2] = test system: HCT-116 (colon) xenograft; assay: in vivo activity in HCT-116 xenograft model; parameters: species or system human; settings: HCT-116 (colon) xenograft in nude mice; 10 mg/kg daily po; 21 days following commencement of treatment
Protocol: as §1, §2, §3, §4, §5

A549 (NSCLC) xenograft = assay: in vivo activity in A549 xenograft model; parameters: species or system human
Protocol: as §1, §2, §3, §4
Tumor growth inhibition (TGI %) was measured 21 days following the commencement of the treatment. […]

[3] = test system: AsPC-1 (pancreatic) xenograft; assay: in vivo activity in AsPC-1 xenograft model; parameters: species or system human; settings: AsPC-1 (pancreatic) xenograft in nude mice; 10 mg/kg daily po; 21 days following commencement of treatment
Protocol: as §1, §2, §3, §4, §5

[4] = test system: MiaPaCa-2 (pancreatic) xenograft; assay: in vivo activity in MiaPaCa-2 xenograft model; parameters: species or system human; settings: MiaPaCa-2 (pancreatic) xenograft in nude mice; 10 mg/kg daily po; 21 days following commencement of treatment
Protocol: as §1, §2, §3, §4, §5

Calu-6 (NSCLC) xenograft = assay: in vivo activity in Calu-6 xenograft model; parameters: species or system human; settings: Calu-6 (NSCLC) xenograft in nude mice; 60 mg/kg daily every other week for 4 weeks (7+/7- x 2 cycles) po; 21 days following commencement of treatment
Protocol: as §1, §2, §3, §4, §5

H460a (NSCLC) xenograft = assay: in vivo activity in H460a xenograft model; parameters: species or system human
Protocol: as §1, §2
For xenograft implantation, cells were harvested using 0.05% trypsin, washed and centrifuged in culture medium, and resuspended in either a 1:1 mixture of phosphate buffered saline (PBS) and Matrigel (BxPC-3) or PBS alone (A549, H460a, LOVO, Calu-6, HCT-116, MiaPaca-2, and AsPC-1) at a concentration of 1.5-5×10^7 cells per mL. A volume of 0.2 mL cell suspension (7.5×10^6 cells for A549, 1×10^7 cells for H460a, 3×10^6 cells for Calu-6 and HCT116, 5×10^6 cells for BxPC3 and AsPC-1, 6×10^6 cells for MiaPaca-2, and 5×10^6 for LOVO) per mouse was implanted subcutaneously in the right flank. All xenograft models were implanted into nude mice with the exception of BxPC3, which was implanted into SCID-beige mice. Tumors were allowed to grow for 8 to 26 days post implant when mean volume reached ˜100-150 mm^3, after which animals were randomized into treatment groups.
Compound I (synthesized according to the procedure described in WO2005/023772) was formulated as a suspension in 1.0% Klucel in water with 0.2% Tween®-80 for oral (po) administration. Formulated compound and vehicle were prepared weekly and stored at 4° C. In the Calu-6 xenograft model, Compound I was dosed at 60 mg/kg daily every other week for 4 weeks (7+/7−×2 cycles). All other xenograft models were dosed with Compound I at 10 mg/kg daily.
Tumor measurements and mouse weights were taken twice per week. Statistical analysis was determined by Mann-Whitney Rank Sum Test, 1-way ANOVA, and post hoc Bonferroni t-test (SigmaStat, version 2.0, Jandel Scientific, San Francisco, Calif.). Differences between groups were considered significant when the probability value (p) was ≦0.05.
as §5
(§6) Cells from the aforementioned four groups and parental A549 and H460a cells were used to make xenograft models using the procedure described in Example 1. […]

[5] = test system: A549 vector control tumors; assay: in vivo activity in A549 vector control xenograft model; parameters: species or system human; settings: Example 5, 10 mg/kg once daily, after 21 days
Excerpt: (§7) IL6 and IL8 lentiviruses were made using IL6 and IL8 plasmids (available from Genecopoeia, Rockville, Md., USA), respectively. A549 cells were divided into three groups with one group receiving a vector control, one group being infected with the IL6 lentivirus and the third group being infected with the IL8 lentivirus. The later two groups formed cell pools with stable expression of exogenous IL6 and IL8, respectively.
as §6

[6] = test system: A549 cells overexpressing IL6 (xenograft); assay: in vivo activity in IL6-overexpressing A549 xenograft model; parameters: species or system human; settings: Example 5, 10 mg/kg once daily, after 21 days
Excerpt: as §7, §6

[7] = test system: A549 cells overexpressing IL8 (xenograft); assay: in vivo activity in IL8-overexpressing A549 xenograft model; parameters: species or system human; settings: Example 5, 10 mg/kg once daily, after 21 days
Excerpt: as §7, §6

[8] = test system: 1:1 mixture of A549 overexpressing IL6 or IL8 (xenograft); assay: in vivo activity in xenograft of 1:1 mixture of IL6- and IL8-overexpressing A549 cells; parameters: species or system human; settings: Example 5; tumors from 1:1 mixture of A549 overexpressing IL6 or IL8; 10 mg/kg once daily; after 21 days
Excerpt: as §7
A portion of the IL6 overexpressing A549 cells and the IL8 overexpressing A549 cells were then combined to form a fourth group containing a 1:1 mixture of such cells.
as §6

Hes1 mRNA = assay: downregulation of Hes1 mRNA following in vitro treatment (Notch signaling blockage); assay type: cell-based, human
Excerpt: Expression of IL6 and IL8 was then quantified in the BxPC3, HCT-116, A549, AsPC-1, MiaPaCa-2, and Calu-6 cell lines by measuring the level of mRNA using qRT-PCR. RNA isolation, and reverse transcription-PCR (RT-PCR) were done using standard laboratory techniques. The catalogue numbers for each probe set were Hes1 (Hs00172878_ml), ACTB (4333762F), IL6 (Hs00174131_ml), IL8 (Hs00174103_ml) and 18S (4319413E).

[9] = test system: IL8-knockdown H460a xenograft; assay: in vivo activity in IL8-knockdown H460a xenograft model; parameters: species or system human; settings: Example 6; IL8-knockdown H460a tumors; 10 mg/kg once daily for 21 days
Excerpt: Lentiviruses were made using pLKO.1-based anti-IL8 shRNA (purchased from Open Biosystems) and used to stably knockdown IL8 expression in H460a cells. […] IL8-knockdown H460a cells, however, still had more than 2-fold higher IL8 levels compared to A549 cells.
Parental H460a cells and IL8-knockdown H460a cells were then implanted as xenografts in mice using the procedures described in Example 1. The mice were then randomized into different treatment groups (10 mice/group): H460a xenograft mice receiving vehicle once daily, H460a xenograft mice receiving Compound I at 10 mg/kg once daily, IL8-knockdown H460a xenograft mice receiving vehicle once daily, and IL8-knockdown H460a xenograft mice receiving Compound I at 10 mg/kg once daily.

[10] = test system: U87MG (glioblastoma) xenograft; assay: in vivo activity in U87MG xenograft model; parameters: species or system human; settings: U87MG xenograft in nude mice; 10 mg/kg once daily for 21 days
Protocol: (§8) The human cancer cell lines U87MG and LOX were purchased from the American Type Culture Collection. Xenografts were implanted in female nu/nu (nude) mice obtained from Charles River Laboratories (Wilmington, Mass.) (10 mice/group) when they were approximately 8 to 14 weeks old and weighed approximately 23 to 25 grams. All animal experiments were performed in accordance with protocols approved by the Roche Animal Care and Use Committee (RACUC). For xenograft implantation, cells were harvested using 0.05% trypsin, washed and centrifuged in culture medium, and resuspended in either a 1:1 mixture of phosphate buffered saline (PBS) and Matrigel (U87MG) or PBS alone (LOX) at a concentration of 1.5-5×10^7 cells per mL. A volume of 0.2 mL cell suspension (5×10^6 cells for U87MG, 2×10^6 cells for LOX) per mouse was implanted subcutaneously in the right flank. Tumors were allowed to grow for 8 to 26 days post implant when mean volume reached ˜100-150 mm^3, after which animals were randomized into treatment groups: U87MG xenograft mice receiving vehicle (Klucel and Tween) once daily, U87MG xenograft mice receiving Compound I at 10 mg/kg once daily for 21 days, LOX xenograft mice receiving vehicle (Klucel and Tween) once daily, and LOX xenograft mice receiving Compound I at 10 mg/kg once daily for 11 days.

LOX (melanoma) xenograft = assay: in vivo activity in LOX xenograft model; parameters: species or system human; settings: LOX xenograft in nude mice; 10 mg/kg once daily for 11 days
Protocol: as §8

[11] = test system: genes associated with angiogenesis; settings: Luistro et al., Cancer Research 69:7672-80 (2009), cited from earlier work
[12] = test system: H460a, A549 parental, A549 control, A549 IL6, A549 IL8 and 1:1 mixture xenograft models; assay: Taxol positive drug control across the xenograft models of Example 5; assay type: in vivo, human; settings: 30 mg/kg, all xenograft models of FIG. 5
Excerpt: as §6

**Q.** For `CC(C)(C(=O)NCC(F)(F)C(F)(F)F)C(=O)N[C@@H]1C(=O)Nc2ccccc2-c2ccccc21` [Compound I, 2,2-dimethyl-N-((S)-6-oxo-6,7-dihydro-5H-dibenzo[b,d]azepin-7-yl)-N′-(2,2,3,3,3-pentafluoro-propyl)-malonamide], which TGI % (LOVO (colon) xenograft) is on record?
**A.** 83%

**Q.** What about the TGI % [1] of the same molecule?
**A.** 82%

**Q.** And the TGI % [2]?
**A.** 76%

**Q.** And the TGI % (A549 (NSCLC) xenograft; A549 (NSCLC) xenograft in nude mice, 10 mg/kg daily po, 21 days following commencement of treatment)?
**A.** 70%

**Q.** And the TGI (A549 (NSCLC) xenograft; Example 5, parental A549 tumors, 10 mg/kg once daily, after 21 days)?
**A.** 71%

**Q.** What about the TGI % [3] of the same molecule?
**A.** 58%

**Q.** And the TGI % [4]?
**A.** 53%

**Q.** What about the TGI % (Calu-6 (NSCLC) xenograft) of the same molecule?
**A.** 42%

**Q.** What about the TGI (H460a (NSCLC) xenograft; Example 5, H460a xenograft (high IL6 and IL8), 10 mg/kg once daily, after 21 days) of the same molecule?
**A.** 9%

**Q.** And the TGI (H460a (NSCLC) xenograft; Example 6, parental H460a tumors, 10 mg/kg once daily for 21 days)?
**A.** 5%

**Q.** What about the TGI (H460a (NSCLC) xenograft; Example 7, H460a xenograft, Compound I 10 mg/kg once daily, anti-IL8 antibody 20 mg/kg twice weekly) of the same molecule?
**A.** 10%

**Q.** And the TGI (H460a (NSCLC) xenograft; Example 8, H460a xenograft, Compound I 10 mg/kg once daily, anti-IL6 antibody 20 mg/kg twice weekly)?
**A.** 43%

**Q.** What about the TGI % (H460a (NSCLC) xenograft; H460a (NSCLC) xenograft in nude mice, 10 mg/kg daily po, 21 days following commencement of treatment (Example 1)) of the same molecule?
**A.** 8%

**Q.** And the TGI [5]?
**A.** 61%

**Q.** What about the TGI [6] of the same molecule?
**A.** 32%

**Q.** What about the TGI [7] of the same molecule?
**A.** 45%

**Q.** And the TGI [8]?
**A.** 8%

**Q.** And the “downregulation of Hes1 mRNA” value (Hes1 mRNA; A549 overexpressing IL6)?
**A.** properly maintained

**Q.** What about the “downregulation of Hes1 mRNA” value (Hes1 mRNA; A549 overexpressing IL8) of the same molecule?
**A.** properly maintained

**Q.** What about the “downregulation of Hes1 mRNA” value (Hes1 mRNA; LOX cells) of the same molecule?
**A.** properly maintained

**Q.** What about the “downregulation of Hes1 mRNA” value (Hes1 mRNA; U87MG cells) of the same molecule?
**A.** properly maintained

**Q.** What about the TGI [9] of the same molecule?
**A.** 24%

**Q.** And the TGI [10]?
**A.** −17%

**Q.** And the TGI (LOX (melanoma) xenograft)?
**A.** 15%

**Q.** And the “change in the angiogenic gene profile” value ([11]; H460a xenograft)?
**A.** little change

**Q.** What about the “expression of genes associated with angiogenesis” value ([11]; treated xenografts) of the same molecule?
**A.** reduced expression

**Q.** With `CC(=O)O[C@H]1C(=O)[C@@]2(C)[C@H]([C@H](OC(=O)c3ccccc3)[C@]3(O)C[C@H](OC(=O)[C@H](O)[C@@H](NC(=O)c4ccccc4)c4ccccc4)C(C)=C1C3(C)C)[C@]1(OC(C)=O)CO[C@@H]1C[C@@H]2O` [Taxol®] as the molecule, how does the “TGI (positive drug control)” value [12] read?
**A.** consistent TGI across the various models
